Reference: patent publication US6211250A, “Percutaneous delivery system” (Soltec Research Pty Ltd., priority 1996, dated 2001)
“Also recorded” adds a separate entry of the source.

What was measured:
[1] = In vitro skin diffusion through shed snake skin in horizontal flow-through diffusion cells; assay type: in vitro ADME, Children's Python; details: result in words
From the text: The Children's Python shed snake skin was obtained during natural shedding and the dorsal skin was used. Shed snake skin has shown to be a suitable model membrane for human skin by Itoh, et al., Use of Shed Snake Skin as a Model Membrane for In Vitro Percutaneous Penetration Studies: Comparison with Human Skin Pharm.
Method of Conducting In-Vitro Skin Diffusion Experiments in Horizontal Diffusion Cells
A modified stainless steel flow-through diffusion cell assembly based on that first shown by Cooper in J. Pharm. Sci. 73, 1984, was used to perform the experiments on diffusion of the drugs from various donor compositions through snake skin.
Topical formulations are weighed out onto the skin substrate which has an area of 0.79 cm^2. Active substance penetrates through the skin and into the receptor solution in the bottom section of the cell. Inlet and outlet tubes connected to the receptor chamber maintain skin conditions.
The temperature of the skin was maintained at 32° C.
The receptor solution consisted of 50% propylene glycol in water, made isotonic with 0.9% sodium chloride and preserved with 0.1% sodium azide.
The concentration of applied drug in each diffusion cell sample was measured using high pressure liquid chromatography (HPLC) and absorbance detection. The results reported for each experiment are average values of the replicate diffusion cells. […]

Candida albicans = details: result in words
Description: The gels and cream were applied to round glass cover slips of 5 cm^2 each. The application rate for all products was 5 mg/cm^2.
After drying, the coated side of the slides were placed on MEA plates which had been previously seeded with a culture of C. albicans. The plates were incubated at 37° C. for 72 hours. The zone of inhibition was measured around the test slides at the end of the incubation period. Furthermore the slides were removed and an assessment of the growth of the test organism was made in the contact zone with the slide. All tests were performed in duplicate.

Structure (SMILES): CC(C(=O)O)c1cccc(C(=O)c2ccccc2)c1 (stereo not drawn) [Ketoprofen, ketoprofen]
- penetration / rate of release of Ketoprofen into the skin (FIG. 3) ([1]; Example 3, varying level of Dermacryl 79): the rate of the release of Ketoprofen into the skin of the subject can be varied
- penetration of ketoprofen (FIG. 5) ([1]; Example 8, different hydrophobic polymers): can be controlled through the incorporation of hydrophobic polymers

Structure (SMILES): Clc1ccccc1C(c1ccccc1)(c1ccccc1)n1ccnc1 [clotrimazole]
- activity of clotrimazole in the gel film against C. albicans (Candida albicans): biologically active within the film according to the invention and in fact is more active than the commercial clotrimazole cream; also recorded: could be increased by addition of a plasticiser ie., propylene glycol
